Each block holds one compound with its values, some of them ahead of it.
How the values were obtained:
[1] = target: T1, human recombinant MAO-B (Homo sapiens, UniProt P27338); test: MAO activity assay (fluorometric, kynuramine substrate), MAO-B; format: biochemical; settings: ± S.D.; for inhibition at 1000 µM: 10^−3 M; for inhibition at 100 µM: 10^−4 M
T1 construct: purchased Sigma-Aldrich
T1 sequence (P27338 1-520): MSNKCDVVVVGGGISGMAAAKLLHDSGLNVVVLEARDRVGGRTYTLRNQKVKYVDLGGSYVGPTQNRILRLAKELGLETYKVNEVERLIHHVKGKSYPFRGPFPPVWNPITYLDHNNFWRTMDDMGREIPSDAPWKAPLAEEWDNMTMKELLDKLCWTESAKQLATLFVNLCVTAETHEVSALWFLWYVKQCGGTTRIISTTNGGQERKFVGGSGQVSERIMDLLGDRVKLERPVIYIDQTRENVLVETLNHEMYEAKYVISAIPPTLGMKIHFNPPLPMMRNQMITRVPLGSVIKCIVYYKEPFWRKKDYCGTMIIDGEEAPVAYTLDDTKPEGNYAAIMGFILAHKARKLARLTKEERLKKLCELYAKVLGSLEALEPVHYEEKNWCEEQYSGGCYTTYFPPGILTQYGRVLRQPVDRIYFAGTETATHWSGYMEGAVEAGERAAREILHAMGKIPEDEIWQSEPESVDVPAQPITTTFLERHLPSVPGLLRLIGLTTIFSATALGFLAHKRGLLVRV
Description: (§1) The enzyme activity assay was performed in accordance with the procedure reported by Matsumoto et al. with slight modifications. All materials used in the enzymatic assays were purchased from Sigma-Aldrich Chemicals. All pipetting protocols in the assay were performed by the Biotek Precision robotic system (BioTek Instruments, Inc., Winooski, VT, USA). To prevent the effect of light MAO enzymes, the assay was performed in 96-well black plates. Phosphate buffer (0.1 M, pH = 7.4) was used for the preparation of 5 mg/mL stock solutions of the human recombinant MAO-A and MAO-B enzymes. The enzyme stock solutions were further diluted with an assay buffer to obtain final concentrations of 0.006 mg/mL MAO-A and 0.015 mg/mL MAO-B. Kynuramine was dissolved in sterilized distilled water to obtain a 25 mM stock solution and then diluted with the assay buffer to obtain final concentrations of 40 μM for the MAO-A enzyme and 20 μM for the MAO-B enzyme. […] The addition of the diluted compounds was followed by the addition of either the MAO-A or MAO-B enzymes (50 μL/well). […] Fluorescence was read from top by using BioTek-Synergy H1 multimode microplate reader at the excitation/emission wavelengths of 310 and 380 nm.
(§2) The IC50 values (Table 2) were calculated from the plots of enzyme activity against concentrations, and the regression analyses were computed in GraphPad Prism Version 6 (GraphPad Software, Inc., La Jolla, CA, USA).

[2] = target: T2, MAO-A enzyme (Homo sapiens, UniProt P21397); test: MAO activity assay (fluorometric, kynuramine substrate), MAO-A; format: biochemical; settings: for inhibition at 1000 µM: 10^−3 M; for inhibition at 1000 µM / inhibition at 100 µM: ± S.D.; for inhibition at 100 µM: 10^−4 M; for inhibition at 10 µM: 10^−5 M; for inhibition at 1 µM: 10^−6 M; for inhibition at 0.1 µM: 10^−7 M; for inhibition at 0.01 µM: 10^−8 M; for inhibition at 0.001 µM: 10^−9 M
T2 construct: purchased Sigma-Aldrich
T2 sequence (P21397 1-527): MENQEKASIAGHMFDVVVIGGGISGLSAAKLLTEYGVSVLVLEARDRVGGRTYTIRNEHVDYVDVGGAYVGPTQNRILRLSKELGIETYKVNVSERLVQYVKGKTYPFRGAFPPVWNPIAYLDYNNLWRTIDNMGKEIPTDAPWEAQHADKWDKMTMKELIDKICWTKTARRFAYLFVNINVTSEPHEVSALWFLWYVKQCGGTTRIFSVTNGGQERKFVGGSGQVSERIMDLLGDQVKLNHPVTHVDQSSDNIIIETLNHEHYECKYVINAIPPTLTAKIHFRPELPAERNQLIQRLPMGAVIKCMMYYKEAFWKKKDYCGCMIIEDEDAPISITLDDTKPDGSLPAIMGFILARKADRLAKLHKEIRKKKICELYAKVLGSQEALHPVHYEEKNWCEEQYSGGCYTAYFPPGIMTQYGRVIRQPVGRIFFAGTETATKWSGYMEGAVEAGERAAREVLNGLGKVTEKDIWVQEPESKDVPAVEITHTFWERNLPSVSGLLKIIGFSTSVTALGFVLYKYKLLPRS
Description: as §1, with “Phosphate buffer (0.1 M, pH = 7.4) was used for the preparation of 5 mg/mL stock solutions of the human recombinant MAO-A and MAO-B enzymes.” left out
as §2

[3] = Cytotoxicity test (MTT assay); settings: mouse, NIH/3T3 mouse embryonic fibroblast cells (ATCC CRL-1658)
Description: The MTT assay was performed as previously described [21, 22, 23, 24, 25, 26].

SMILES: CCOc1ccc([N+](=O)[O-])c(NN=Cc2cccs2)n1 [Compound 2m, 6-Ethoxy-3-nitro-2-[2-((thiophen-2-yl)methylene)hydrazinyl]pyridine]
- inhibition at 1000 µM [1]: 34.4 ± 0.88%
- inhibition at 100 µM [1]: 21.2 ± 0.8%
- inhibition at 1000 µM [2]: 41.4 ± 1.13%
- inhibition at 100 µM [2]: 36 ± 1.15%
- melting point: 152 °C

SMILES: CCOc1ccc([N+](=O)[O-])c(NN=Cc2ccc([N+](=O)[O-])cc2)n1 [Compound 2f, 6-Ethoxy-3-nitro-2-[2-(4-nitrobenzylidene)hydrazinyl]pyridine]
- inhibition at 1000 µM [1]: 7.39 ± 0.31%
- inhibition at 100 µM [1]: 0.55 ± 0.02%
- inhibition at 1000 µM [2]: 65 ± 1.23%
- inhibition at 100 µM [2]: 16 ± 0.56%
- melting point: 281 °C

SMILES: O=C(NCCN1CCOCC1)c1ccc(Cl)cc1 [Moclobemide, moclobemide, reference compound]
- inhibition at 10 µM [2]: 60.5 ± 2.55%
- inhibition at 1 µM [2]: 36.1 ± 1.98%
- inhibition at 0.1 µM [2]: 22.1 ± 1.33%
- inhibition at 0.01 µM [2]: 18.2 ± 0.81%
- inhibition at 0.001 µM [2]: 14.1 ± 0.72%

SMILES: CCOc1ccc([N+](=O)[O-])c(NN=Cc2ccc(OC)cc2)n1 [Compound 2e, 6-Ethoxy-2-[2-(4-methoxybenzylidene)hydrazinyl]-3-nitropyridine]
- inhibition at 1000 µM [1]: 33.1 ± 1.14%
- inhibition at 100 µM [1]: 0.22 ± 0.008%
- inhibition at 1000 µM [2]: 55.6 ± 1.05%
- inhibition at 100 µM [2]: 14 ± 0.41%
- melting point: 175 °C

The next lines start with results.

- inhibition at 1000 µM [1]: 0.76 ± 0.03%
- inhibition at 100 µM [1]: 0.58 ± 0.01%
- inhibition at 1000 µM [2]: 25.6 ± 0.88%
- inhibition at 100 µM [2]: 17.9 ± 0.68%
- melting point: 168 °C
SMILES: CCOc1ccc([N+](=O)[O-])c(NN=Cc2ccccc2)n1 [Compound 2a, 2-(2-Benzylidenehydrazinyl)-6-ethoxy-3-nitropyridine]

- inhibition at 1000 µM [1]: 60.2 ± 1.18%
- inhibition at 100 µM [1]: 0.69 ± 0.03%
- inhibition at 1000 µM [2]: 52 ± 1.02%
- inhibition at 100 µM [2]: 7.09 ± 0.18%
- melting point: 191 °C
SMILES: CCOc1ccc([N+](=O)[O-])c(NN=Cc2ccc(F)cc2)n1 [Compound 2c, 6-Ethoxy-2-[2(4-fluorobenzylidene)hydrazinyl]-3-nitropyridine]

- inhibition at 1000 µM [1]: 38.3 ± 1.19%
- inhibition at 100 µM [1]: 29.1 ± 0.99%
- IC50 [2]: 13.1 µM
- inhibition at 1000 µM [2]: 55.7 ± 1.26%
- inhibition at 100 µM [2]: 51.7 ± 1.18%
- inhibition at 10 µM [2]: 31.2 ± 1.2%
- inhibition at 1 µM [2]: 21.1 ± 0.84%
- inhibition at 0.1 µM [2]: 15.4 ± 0.62%
- inhibition at 0.01 µM [2]: 12.7 ± 0.43%
- inhibition at 0.001 µM [2]: 11.6 ± 0.38%
- melting point: 165 °C
SMILES: CCOc1ccc([N+](=O)[O-])c(NN=Cc2ccc(C(F)(F)F)cc2)n1 [Compound 2i, 6-Ethoxy-2-[2-(4-trifluoromethylbenzylidene)hydrazinyl]-3-nitropyridine]
- IC50 [3]: > 1000 µM

— publication PMC6017090, “Design, Synthesis and Biological Evaluation of Novel N-Pyridyl-Hydrazone Derivatives as Potential Monoamine Oxidase (MAO) Inhibitors” (Molecules : A Journal of Synthetic Chemistry and Natural …, 2018)
